Earlier results in US20160346267A1, “Pharmaceutical Composition Comprising Apixaban” (SANDOZ AG, priority 2014, published 2016).

COc1ccc(-n2nc(C(N)=O)c3c2C(=O)N(c2ccc(N4CCCCC4=O)cc2)CC3)cc1 [Apixaban, 1-(4-methoxyphenyl)-7-oxo-6-(4-(2-oxopiperidin-1-yl)phenyl)-4,5,6,7-tetrahydro-1H-pyrazolo[3,4-c]pyridine-3-carboxamide]
solubility: poorly soluble
